Measured values reported in patent US8293253B2, “Compositions for controlled delivery of pharmaceutically active compounds” (IDEXX Laboratories, Inc., priority 2004, dated 2012).

Assay: Dissolution of AMP alone in organic solvent
Format: physicochemical
From the text: (§1) […] […] 1 eq. of a phosphorylated nucleotide such as adefovir can be substituted for each eq. of AMP.
as §1

Nc1ncnc2c1ncn2[C@@H]1O[C@H](COP(=O)(O)O)[C@@H](O)[C@H]1O [AMP, Adenosine monophosphate]
Dissolution of AMP alone in N-methyl pyrrolidone (0.5 g in 10 mL of N-methyl pyrrolidone, absence of tyrosine butyrate): will not dissolve | Dissolution of AMP alone in glycerol formal (1 g in 10 mL of glycerol formal, absence of isoleucine butyrate): will not dissolve
